Data set [1] is described as follows: Stress Stability study of Polymorphic Form Alpha (PXRD after stress). In kind it is physicochemical.
Data set [2] can be described thus: Stress Stability study of Polymorphic Form RK2 (XRPD after stress). Format: physicochemical.

Molecules are shown by their SMILES.

On to `Cc1occc(=O)c1[O-].Cc1occc(=O)c1[O-].Cc1occc(=O)c1[O-].[Fe+3]` [Polymorphic Form Alpha, 3-hydroxy-2-methyl-4H-pyrane-4-one iron (III) complex (3:1)], for which the PXRD entry in data set [1] (75% RH, 15 h) is “Form Alpha”; in data set [1] (90% RH, 15 h) it was “Form Alpha”; in data set [1] (Drying at 30° C., 3 h), “Form Alpha”; in data set [1] (Drying at 70° C., 3 h), “Form Alpha”; in data set [1] (Drying at 100° C., 3 h), “Form Alpha”; in data set [1] (Grinding, 10 min) it was “Form Alpha”. For the same compound, the PXRD result in data set [1] (Hexane Slurry) and in data set [1] (Pressure study (17 Kg/cm2; 15 min)) was “Form Alpha” each time. In addition, in data set [1] (various stress conditions as mentioned in the Table 1), the “XRPD pattern after subjecting to various stress conditions” value is listed as “stable”.

As to `Cc1occc(=O)c1[O-].Cc1occc(=O)c1[O-].Cc1occc(=O)c1[O-].[Fe+3]` [Polymorphic Form RK2], the XRPD entry in data set [2] (50% RH, 12 h) is on record as “Form RK2”; in data set [2] (75% RH, 12 h), “Form RK2”; in data set [2] (90% RH, 12 h), “Form RK2”; in data set [2] (Drying at 100° C., 3 h), “Form RK2”; in data set [2] (Drying at 150° C., 3 h), “Form RK2”; in data set [2] (MTBE Slurry, 12 h), “Form RK2”. The XRPD result in data set [2] (Micronization study) and in data set [2] (Pressure study (Pressure: 17.5 Kg/cm^2)) was “Form RK2” throughout. The “XRPD pattern after subjecting to various stress conditions” value in data set [2] (various stress conditions as mentioned in the Table 2) was “stable”.

For the origin of these results see patent US20250145580A1, “AN IMPROVED PROCESS FOR THE PREPARATION OF FERRIC MALTOL” (RK Pharma Inc., priority 2021, published 2025).
